The text below walks through data of patent US20120302614A1, “METHOD FOR IMPROVING CEREBRAL CIRCULATION OR TREATING A CEREBRAL BLOOD FLOW DISORDER” (OSAKA UNIVERSITY, priority 2007, published 2012).

Structures are written as SMILES.

Assay [1] in a line: Blood pressure by tail-cuff method, Test Example 1. The assay is classed as in vivo, ddY mouse. On the procedure:
The therapeutic effect of olmesartan medoxomil in Aβ injection model and the dose dependency thereof were examined according to the following experimental schedule. [Experimental Schedule]: Prior to the experiment, 8-week old male ddY mice were administered olmesartan medoxomil (0.5 mg/kg/day, 1 mg/kg/day, 3 mg/kg/day or 6 mg/kg/day) or distilled water orally for four weeks (day −28 to −1). Then, Aβ 1-40 was administered to the mice intracerebroventricularly (day 0). (Although Aβ 1-40 was administered into one of the lateral ventricles in WO 2006/059777, Aβ 1-40 was administered in Test Example 1 to both lateral ventricles with an interval of one day between two administrations. Except for this point, Aβ 1-40 administration was performed in the same manner as in WO 2006/059777.) From one week thereafter, a behavioral test to evaluate cognitive function (Morris water maze test; Morris R et al., J Neuroscience Methods 1984, 11, 47-60) was performed (day 7 to 12). As a negative control, mice which had received oral administration of distilled water for four weeks were administered Aβ 40-1 intracerebroventricularly. The administration of olmesartan medoxomil or distilled water was continued until the end of the behavioral test. Measurements were performed as described below. • Hidden platform test: A platform is placed below the water surface of a water pool 150 cm in diameter filled with white water-colored. Mice are released into the water, and the time it takes them to reach the platform is measured. This trial is performed three times a day and for five consecutive days. As they learn, mice become able to reach the platform more quickly day by day. • Visible platform test: Mice are released into the water under such conditions that they can see the platform. The time it takes them to reach the platform is measured. • Probe test: The platform is removed, and mice are released and allowed to swim freely. […] The time they spent in that quadrant is measured. • Annnulus crossing: The number of times mice crossed the platform in the probe test is counted. […]

Assay [2] has as its system Aβ injection model (Aβ 1-40 administered intracerebroventricularly). The assay can be described thus: Morris water maze tests in Aβ injection model, Test Example 2. The assay is classed as in vivo, ddY mouse. As to conditions: olmesartan medoxomil 1 mg/kg/day, hydralazine 30 mg/kg/day. On the procedure:
The therapeutic effect of olmesartan medoxomil in Aβ injection model and the dose dependency thereof were examined according to the following experimental schedule. [Experimental Schedule]: Prior to the experiment, 8-week old male ddY mice were administered olmesartan medoxomil (0.5 mg/kg/day, 1 mg/kg/day, 3 mg/kg/day or 6 mg/kg/day) or distilled water orally for four weeks (day −28 to −1). Then, Aβ 1-40 was administered to the mice intracerebroventricularly (day 0). (Although Aβ 1-40 was administered into one of the lateral ventricles in WO 2006/059777, Aβ 1-40 was administered in Test Example 1 to both lateral ventricles with an interval of one day between two administrations. Except for this point, Aβ 1-40 administration was performed in the same manner as in WO 2006/059777.) From one week thereafter, a behavioral test to evaluate cognitive function (Morris water maze test; Morris R et al., J Neuroscience Methods 1984, 11, 47-60) was performed (day 7 to 12). As a negative control, mice which had received oral administration of distilled water for four weeks were administered Aβ 40-1 intracerebroventricularly. The administration of olmesartan medoxomil or distilled water was continued until the end of the behavioral test. Measurements were performed as described below. • Hidden platform test: A platform is placed below the water surface of a water pool 150 cm in diameter filled with white water-colored. Mice are released into the water, and the time it takes them to reach the platform is measured. This trial is performed three times a day and for five consecutive days. As they learn, mice become able to reach the platform more quickly day by day. • Visible platform test: Mice are released into the water under such conditions that they can see the platform. The time it takes them to reach the platform is measured. • Probe test: The platform is removed, and mice are released and allowed to swim freely. Those mice with good learning/memory swim in the quadrant where the platform was located searching for the platform. The time they spent in that quadrant is measured. • Annnulus crossing: The number of times mice crossed the platform in the probe test is counted. […] The dose of olmesartan medoxomil was set at a low level of 1 mg/kg/day in view of the experimental results of Test Example 1. […] As behavioral tests to assess cognitive function, Morris water maze tests were performed as in Test Example 1 (hidden platform test, visible platform test and probe test) and, in addition, an open field test was also performed. Further, long-term retention, working memory task and swimming speed were also examined in the Morris water maze tests. Measurements were performed as described below. • Open field test: A cubic box (30×30×30 cm) is used. On each X and Y bank of the open-field area, two infrared beams are attached 2 cm above the floor at a 10 cm interval. The number of successive interceptions by the subject of the two adjoining beams on each bank is counted as locomotion score. • Long-term retention: On day 12 after the completion of the hidden platform test as a water maze test, mice are released into the water and the time it takes them to reach the platform is measured. • Working memory task: The platform is transferred and fixed at a new place. Mice are given four consecutive trials at intervals of as short as 20 seconds, and the time it takes them to reach the platform is measured. […] In order to eliminate this influence, swimming speed is measured.

As for `CCCc1nc(C(C)(C)O)c(C(=O)OCc2oc(=O)oc2C)n1Cc1ccc(-c2ccccc2-c2nnn[nH]2)cc1` [olmesartan medoxomil, (5-methyl-2-oxo-1,3-dioxolen-4-yl)methyl 4-(1-hydroxy-1-methylethyl)-2-propyl-1-[4-[2-(tetrazol-5-yl)phenyl]phenyl]methyl-imidazole-5-carboxylate], in assay [1] (after 4-week oral administration (day −1), olmesartan medoxomil administration groups (0.5, 1, 3, 6 mg/kg/day)), the “blood pressure compared to the distilled water administration group” value is “significantly lowered”. Also, the blood pressure result in assay [1] (immediately after Aβ administration (day 2) and after completion of the behavioral test (day 14)) is “A similar tendency was observed”. Further, the blood pressure entry in assay [1] (lowest dose 0.5 mg/kg/day oral, after 4-week administration (day −1)) is “significant lowering”. For the same compound, in assay [2] (Aβ 1-40 + drug), the “annulus crossings: number of platform crossings compared to Aβ 1-40 administration group” value is recorded as “increased” and the “hidden platform test: time to reach the platform” value is reported as “shortened through successive sessions”. The “long-term retention: time to reach the platform compared to Aβ 1-40 administration group” value in assay [2] (day 17) was “shortened”. Besides, in assay [2], the “spatial memory impairment and learning disability evoked by Aβ 1-40 (Morris water test, summary)” value is listed as “significantly improved”; the “working memory task: time to reach the platform compared to Aβ 1-40 administration group” value is on record as “shortened”.
